The results in this text go back to patent US20020147230A1, “Aminal Diones as potassium channel openers” (priority 2001, published 2002).

Read-outs that look alike come from different tables or passages of the source.

Data set [1] has as its system tissue strips obtained from Landrace pig bladders. As to the kind of experiment: Functional potassium channel opening activity in isolated bladder strips (field-stimulated twitch). The conditions noted are these: for EC50: amount causing 50% of the agent's maximal response, read-out: ED50 (the source's name). As to the method: Compounds were evaluated for functional potassium channel opening activity using tissue strips obtained from Landrace pig bladders.
Landrace pig bladders were obtained from female Landrace pigs of 930 kg. Landrace pigs were euthanized with an intraperitoneal injection of pentobarbital solution, Somlethal®, J. A. Webster Inc., Sterling Mass. The entire bladder was removed and immediately placed into Krebs Ringer bicarbonate solution (composition, mM: NaCl, 120; NaHCO3, 20; dextrose, 11; KCl, 4.7; CaCl2, 2.5; MgSO4, 1.5; KH2PO4, 1.2; K2EDTA, 0.01, equilibrated with 5% CO2/95% O2pH 7.4 at 37° C.). Propranolol (0.004 mM) was included in all of the assays to block β-adrenoceptors. The trigonal and dome portions were discarded. Strips 3-5 mm wide and 20 mm long were prepared from the remaining tissue cut in a circular fashion. The mucosal layer was removed. One end was fixed to a stationary glass rod and the other to a Grass FT03 transducer at a basal preload of 1.0 gram. Two parallel platinum electrodes were included in the stationary glass rod to provide field stimulation of 0.05 Hz, 0.5 milli-seconds at 20 volts. This low frequency stimulation produced a stable twitch response of 100-500 centigrams. Tissues were allowed to equilibrate for at least 60 minutes and primed with 80 mM KCl. A control concentration response curve (cumulative) was generated for each tissue using the potassium channel opener P1075 as the control agonist. […] After a 60 minute rinsing period, a concentration response curve (cumulative) was generated for the test agonist in the same fashion as that used for the control agonist P1075. The maximal efficacy of each compound (expressed as % relative to P1075) is reported. The amount of agent necessary to cause 50% of the agent's maximal response (ED50) was calculated using “ALLFIT” (DeLean et al., Am. J. Physiol., 235, E97 (1980)), hereby incorporated by reference. Agonist potencies were also expressed as an index relative to P1075. The index was calculated by dividing the ED50 for P1075 by the ED50 for the test agonist in a given tissue. Each tissue was used for only one test agonist, and the indices obtained from each tissue were averaged to provide an average index of potency.

Data set [2] relates to primary cultured guinea-pig urinary bladder (GPB) cells. As to the kind of experiment: Membrane hyperpolarization (MHP) assay, DiBAC(4)3 / FLIPR. It counts as cell-based. The conditions noted are these: for EC50: membrane hyperpolarization in guinea-pig bladder cells. As to the method:
Compounds were evaluated for potassium channel opening activity using primary cultured guinea-pig urinary bladder (GPB) cells.
For the preparation of urinary bladder smooth muscle cells, urinary bladders were removed from male guinea-pigs (Hartley, Charles River, Wilmington, Mass.) weighing 300-400 g and placed in ice-cold Ca^2+-free Krebs solution (composition, mM: KCl, 2.7; KH2PO4, 1.5; NaCl, 75; Na2HPO4, 9.6; Na2HPO4.7H2O, 8; MgSO4, 2; glucose, 5; HEPES, 10; pH 7.4). Cells were isolated by enzymatic dissociation as previously described with minor modifications (Klockner and Isenberg, Pflugers Arch. (1985), 405, 329-339), hereby incorporated by reference. The bladder was cut into small sections and incubated in 5 mL of the Kreb's solution containing 1 mg/mL collagenase (Sigma, St. Louis, Mont.) and 0.2 mg/mL pronase (Calbiochem, La Jolla, Calif.) with continuous stirring in a cell incubator for 30 minutes. The mixture was then centrifuged at 1300× g for 5 minutes, and the pellet resuspended in Dulbecco's PBS (GIBCO, Gaithersburg, Md.) and recentrifuged to remove residual enzyme. The cell pellet was resuspended in 5 mL growth media (composition: Dulbecco's modified Eagle's medium supplemented with 10% fetal bovine serum, 100 units/mL penicillin, 100 units/mL streptomycin and […] amphotericin B) and further dissociated by pipetting the suspension through a flame-polished Pasteur pipette and passing it through a polypropylene mesh membrane (Spectrum, Houston, Tex.). The cell density was adjusted to 100,000 cells/mL by resuspension in growth media. Cells were plated in clear-bottomed black 96-well plates (Packard) for membrane potential studies at a density of 20,000 cells/well and maintained in a cell incubator with 90% air:10% CO2 until confluent. Cells were confirmed to be of smooth muscle type by cytoskeletal staining using a monoclonal mouse anti human-α-smooth muscle actin (Biomeda, Foster City, Calif.).
Functional activity at potassium channels was measured by evaluating changes in membrane potential using the bis-oxonol dye DiBAC(4)3 (Molecular Probes) in a 96-well cell-based kinetic assay system, Fluorescent Imaging Plate Reader (FLIPR) (K. S. Schroeder et al., J. Biomed. Screen., v. 1 pp. 7581 (1996)), hereby incorporated by reference. DiBAC(4)3 is an anionic potentiometric probe which partitions between cells and extracellular solution in a membrane potential-dependent manner. With increasing membrane potential (for example, K^+ depolarization), the probe further partitions into the cell; this is measured as an increase in fluorescence due to dye interaction with intracellular lipids and proteins. Conversely, decreasing membrane potential (hyperpolarization by potassium channel openers) evokes a decrease in fluorescence.
Confluent guinea-pig urinary bladder cells cultured in black clear-bottomed 96-well plates were rinsed twice with […] assay buffer (composition, mM: HEPES, 20; NaCl, 120; KCl, 2; CaCl2, 2; MgCl2, 1; glucose, 5; pH 7.4 at 25° C.) containing 5 μM DiBAC(4)3 and incubated with […] of the buffer in a cell incubator for 30 minutes at 37° C. to ensure dye distribution across the membrane. After recording the baseline fluorescence for 5 minutes, the reference or test compounds, prepared at 10 times the concentration in the assay buffer, were added directly to the wells. Changes in fluorescence were monitored for an additional 25 minutes. Hyperpolarization responses were corrected for any background noise and were normalized to the response observed with 10 μM of the reference compound P1075 (assigned as 100%), a potent opener of smooth muscle KATP channels (Quast et al., Mol. Pharmacol., v. 43 pp. 474-481 (1993)).
Routinely, five concentrations of P1075 or test compounds (log or half-log dilutions) were evaluated and the maximal steady-state hyperpolarization values (expressed as % relative to P1075) plotted as a function of concentration. […]

Setting [3] is: Sus scrofa, Landrace pig bladder strips.
Setting [4] is: Sus scrofa, maximal efficacy relative to P1075, Landrace pig bladder strips, field stimulation 0.05 Hz.

In general, Emax refers to the maximal effect, on the per cent scale that the assay sets. With `Cc1ccc(C(=O)NC(Nc2c(Nc3cccnc3)c(=O)c2=O)C(C)(C)C)cc1` (centres unmarked) [Example 1, N-(1-{[3,4-dioxo-2-(3-pyridinylamino)-1-cyclobuten-1-yl]amino}-2,2-dimethylpropyl)-4-methylbenzamide], the EC50 in data set [1] (setting [3]) is 19000 nM; in data set [2] (Cavia porcellus) it was 150 nM. Moreover, the maximal response (Emax) in data set [1] (setting [4]) came to 54%.
As for `CC(C)(C)C(NC(=O)c1ccc(Cl)cc1)Nc1c(Nc2cccnc2)c(=O)c1=O` (centres unmarked) [Example 2, 4-chloro-N-(1-{[3,4-dioxo-2-(3-pyridinylamino)-1-cyclobuten-1-yl]amino}-2,2-dimethylpropyl)benzamide], the EC50 was found to be 6900 nM in data set [1] (setting [3]) and 160 nM in data set [2] (Cavia porcellus). The same compound had an Emax in data set [1] (setting [4]) of 79%.
The like results for `C=CCC(C)(C)C(NC(=O)c1ccc(Cl)cc1)Nc1c(Nc2cccnc2)c(=O)c1=O` (centres unmarked) [Example 17, 4-chloro-N-(-1-{[3,4-dioxo-2-(3-pyridinylamino)-1-cyclobuten-1-yl]amino}-2,2-dimethyl-4-pentenyl)benzamide] were, in that order, 5800 nM, 180 nM and 92%.
On to `CC(C)(Cc1ccccc1)C(NC(=O)c1ccc(Cl)cc1)Nc1c(Nc2cccnc2)c(=O)c1=O` (centres unmarked) [Example 18], for which the Index in data set [1] (ED50 for P1075 divided by ED50 for the test agonist in a given tissue, averaged) is 0.055. The figures for the EC50 in data set [1] (Landrace pig bladder strips) and in data set [2] were 17000 nM and 510 nM, respectively. In data set [1] (maximal efficacy relative to P1075, Landrace pig bladder strips, field stimulation 0.05 Hz), the “Efficacy (% P1075)” value came out at 62 % P1075. Further, in data set [2] (maximal steady-state hyperpolarization, normalized to 10 μM P1075 (100%), GPB cells), the “Maximal Response (% P1075)” value was 97 % P1075.
As for `CCC(CC)(CCC#N)C(NC(=O)c1ccc(Cl)cc1)Nc1c(Nc2cccnc2)c(=O)c1=O` (centres unmarked) [Example 19, 4-chloro-N-(4-cyano-1-{[3,4-dioxo-2-(3-pyridinylamino)-1-cyclobuten-1-yl]amino}-2,2-diethylbutyl)benzamide], the EC50 in data set [2] (Cavia porcellus) was > 10000 nM.
On to `C=CCOCC(CC)(COCC=C)C(NC(=O)c1ccc(Cl)cc1)Nc1c(Nc2cccnc2)c(=O)c1=O` (centres unmarked) [Example 20, N-(2,2-bis[(allyloxy)methyl]-1-{[3,4-dioxo-2-(3-pyridinylamino)-1-cyclobuten-1-yl]amino}butyl)-4-chlorobenzamide], for which the EC50 in data set [2] (Cavia porcellus) turned out to be 580 nM.
For orientation: melting point means the temperature, or range, at which the solid turns liquid. `CC(C)(C)C(NC(=O)c1ccc(I)cc1)NS(=O)(=O)Nc1cccnc1` (centres unmarked) [Example 34, N-(2,2-dimethyl-1-{[(3-pyridinylamino)sulfonyl]amino}propyl)-4iodobenzamide] gave a melting point of 177 to 178 °C.
